Measurements taken from patent US7074789B2, “Kinase inhibitors” (Amgen Inc., priority 1999, dated 2006).
Where two headings read alike, the source gives them in different places.

Columns and labels:
Assay type in all cases: biochemical
[1] = target: T1, Itk (Homo sapiens, UniProt Q08881); test: Kinase inhibition assay (33P transfer), Itk; conditions: for IC50: read-out: Itk-1
T1 construct: Kinases are expressed as either kinase domains or full length constructs; made in house
T1 sequence (Q08881 1-620): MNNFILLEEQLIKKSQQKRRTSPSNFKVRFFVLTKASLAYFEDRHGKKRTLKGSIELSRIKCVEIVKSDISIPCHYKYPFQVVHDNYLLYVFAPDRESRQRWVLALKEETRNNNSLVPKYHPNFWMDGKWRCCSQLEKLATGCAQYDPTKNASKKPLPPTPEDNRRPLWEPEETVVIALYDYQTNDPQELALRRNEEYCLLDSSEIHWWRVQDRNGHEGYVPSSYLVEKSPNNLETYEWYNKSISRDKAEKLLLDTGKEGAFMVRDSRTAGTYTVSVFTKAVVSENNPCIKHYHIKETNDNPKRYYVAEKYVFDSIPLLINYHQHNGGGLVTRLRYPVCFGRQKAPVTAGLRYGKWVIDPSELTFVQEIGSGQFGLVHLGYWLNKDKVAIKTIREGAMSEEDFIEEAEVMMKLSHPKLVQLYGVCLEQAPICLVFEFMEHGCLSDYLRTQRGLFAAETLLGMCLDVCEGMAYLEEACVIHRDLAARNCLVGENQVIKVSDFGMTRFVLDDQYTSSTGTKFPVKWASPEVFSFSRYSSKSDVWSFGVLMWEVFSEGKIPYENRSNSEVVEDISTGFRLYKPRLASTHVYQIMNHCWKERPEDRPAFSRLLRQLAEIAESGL
Source text: (§1) The inhibitor compounds described herein are screened in the following manner. Kinases suitable for use in the following protocol to determine kinase activity of the compounds described herein include, -but are not limited to: Lck, Lyn, Src, Fyn, Syk, Zap-70, Itk, Tec, Btk, EGFR, ErbB2, Kdr, Flt-1, Flt-3, Tek, c-Met, InsR, and AKT.
(§2) Kinases are expressed as either kinase domains or full length constructs fused to glutathione S-transferase (GST) or polyHistidine tagged fusion proteins in either E. colior Baculovirus-High Five expression systems. They are purified to near homogeneity by affinity chromatography essentially as previously described (Lehr et al., 1996; Gish et al., 1995). In some instances, kinases are co-expressed or mixed with purified or partially purified regulatory polypeptides prior to measurement of activity.
(§3) Kinase activity and inhibition are measured essentially by established protocols (Braunwalder et al., 1996). Briefly, The transfer of ^33PO4 from ATP to the synthetic substrates poly(Glu, Tyr) 4:1 or poly(Arg, Ser) 3:1 attached to the bioactive surface of microtiter plates serves as the basis to evaluate enzyme activity. After an incubation period, the amount of phosphate transferred is measured by first washing the plate with 0.5% phosphoric acid, adding liquid scintillant, and then counting in a liquid scintillation detector. The IC50 is determined by the concentration of compound that causes a 50% reduction in the amount of […] incorporated onto the substrate bound to the plate.

[2] = target: T2, c-Met (Homo sapiens, UniProt P08581); test: Kinase inhibition assay (33P transfer), c-Met; conditions: Table 2, kinase inhibition class; for IC50: read-out: Met-1
T2 construct: Kinases are expressed as either kinase domains or full length constructs; made in house
Source text: as §1, §2, §3

[3] = target: T3, Kdr (Homo sapiens, UniProt P35968); test: Kinase inhibition assay (33P transfer), Kdr; conditions: for IC50: read-out: KDR-1
T3 construct: Kinases are expressed as either kinase domains or full length constructs; made in house
Source text: as §1
as §2, with “They are purified to near homogeneity by affinity chromatography essentially as previously described (Lehr et al., 1996; Gish et al., 1995).” left out
(§4) Briefly, The transfer of ^33PO4 from ATP to the synthetic substrates poly(Glu, Tyr) 4:1 or poly(Arg, Ser) 3:1 attached to the bioactive surface of microtiter plates serves as the basis to evaluate enzyme activity. After an incubation period, the amount of phosphate transferred is measured by first washing the plate with 0.5% phosphoric acid, adding liquid scintillant, and then counting in a liquid scintillation detector.

[4] = target: T4, EGFR (Homo sapiens, UniProt P00533); test: Kinase inhibition assay (33P transfer), EGFR; conditions: Table 2, kinase inhibition class; for IC50: read-out: EGFR-1
T4 construct: Kinases are expressed as either kinase domains or full length constructs; made in house
Source text: as §1, §2, §3

[5] = target: T5, AKT (Homo sapiens, UniProt Q9Y243); test: Kinase inhibition assay (33P transfer), AKT; conditions: Table 2, kinase inhibition class; for IC50: read-out: AKT3-1
T5 construct: Kinases are expressed as either kinase domains or full length constructs; made in house
Source text: as §1
as §2, with “They are purified to near homogeneity by affinity chromatography essentially as previously described (Lehr et al., 1996; Gish et al., 1995).” left out
as §4

[6] = target: T6, Lck (Homo sapiens, UniProt P06239); test: Kinase inhibition assay (33P transfer), Lck; conditions: for IC50: read-out: Lck-1
T6 construct: Kinases are expressed as either kinase domains or full length constructs; made in house
Source text: as §1
as §2, with “They are purified to near homogeneity by affinity chromatography essentially as previously described (Lehr et al., 1996; Gish et al., 1995).” left out
as §4

[7] = target: T7, Zap-70 (Homo sapiens, UniProt P43403); test: Kinase inhibition assay (33P transfer), Zap-70; conditions: for IC50: read-out: Zap-1
T7 construct: Kinases are expressed as either kinase domains or full length constructs; made in house
T7 sequence (P43403 1-619): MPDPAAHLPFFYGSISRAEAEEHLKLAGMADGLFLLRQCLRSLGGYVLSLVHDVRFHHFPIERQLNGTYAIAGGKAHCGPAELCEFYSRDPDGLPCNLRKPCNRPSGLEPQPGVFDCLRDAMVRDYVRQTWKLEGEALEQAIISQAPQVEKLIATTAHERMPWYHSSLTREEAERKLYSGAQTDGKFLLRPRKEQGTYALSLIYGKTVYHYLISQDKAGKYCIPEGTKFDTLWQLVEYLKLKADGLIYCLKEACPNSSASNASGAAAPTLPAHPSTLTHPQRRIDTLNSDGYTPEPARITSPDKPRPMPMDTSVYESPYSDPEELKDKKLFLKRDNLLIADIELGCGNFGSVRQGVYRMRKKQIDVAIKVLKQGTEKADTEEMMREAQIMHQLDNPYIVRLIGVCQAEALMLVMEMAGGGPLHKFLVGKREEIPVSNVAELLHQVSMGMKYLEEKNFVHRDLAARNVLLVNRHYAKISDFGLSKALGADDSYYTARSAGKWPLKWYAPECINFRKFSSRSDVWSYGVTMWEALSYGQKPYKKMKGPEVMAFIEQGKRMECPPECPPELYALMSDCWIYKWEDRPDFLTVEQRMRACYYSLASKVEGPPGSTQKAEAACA
Source text: as §1
as §2, with “They are purified to near homogeneity by affinity chromatography essentially as previously described (Lehr et al., 1996; Gish et al., 1995).” left out
as §4

T6 sequence (P06239 whole entry, species assumed, the tested form may be a part): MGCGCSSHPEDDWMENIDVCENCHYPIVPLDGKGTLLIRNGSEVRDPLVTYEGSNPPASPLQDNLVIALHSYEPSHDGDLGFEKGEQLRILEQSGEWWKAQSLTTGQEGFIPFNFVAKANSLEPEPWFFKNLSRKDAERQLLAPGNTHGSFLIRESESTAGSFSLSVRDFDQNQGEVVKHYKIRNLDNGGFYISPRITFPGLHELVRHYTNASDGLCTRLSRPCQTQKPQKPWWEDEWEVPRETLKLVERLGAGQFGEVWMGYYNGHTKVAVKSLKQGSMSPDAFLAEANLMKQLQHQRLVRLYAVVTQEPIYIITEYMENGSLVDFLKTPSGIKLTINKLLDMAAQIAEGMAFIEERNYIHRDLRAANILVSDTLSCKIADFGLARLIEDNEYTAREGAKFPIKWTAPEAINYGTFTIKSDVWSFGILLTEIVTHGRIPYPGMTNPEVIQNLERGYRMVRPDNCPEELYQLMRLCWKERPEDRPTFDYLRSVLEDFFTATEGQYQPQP
T2 sequence (P08581 25-1390): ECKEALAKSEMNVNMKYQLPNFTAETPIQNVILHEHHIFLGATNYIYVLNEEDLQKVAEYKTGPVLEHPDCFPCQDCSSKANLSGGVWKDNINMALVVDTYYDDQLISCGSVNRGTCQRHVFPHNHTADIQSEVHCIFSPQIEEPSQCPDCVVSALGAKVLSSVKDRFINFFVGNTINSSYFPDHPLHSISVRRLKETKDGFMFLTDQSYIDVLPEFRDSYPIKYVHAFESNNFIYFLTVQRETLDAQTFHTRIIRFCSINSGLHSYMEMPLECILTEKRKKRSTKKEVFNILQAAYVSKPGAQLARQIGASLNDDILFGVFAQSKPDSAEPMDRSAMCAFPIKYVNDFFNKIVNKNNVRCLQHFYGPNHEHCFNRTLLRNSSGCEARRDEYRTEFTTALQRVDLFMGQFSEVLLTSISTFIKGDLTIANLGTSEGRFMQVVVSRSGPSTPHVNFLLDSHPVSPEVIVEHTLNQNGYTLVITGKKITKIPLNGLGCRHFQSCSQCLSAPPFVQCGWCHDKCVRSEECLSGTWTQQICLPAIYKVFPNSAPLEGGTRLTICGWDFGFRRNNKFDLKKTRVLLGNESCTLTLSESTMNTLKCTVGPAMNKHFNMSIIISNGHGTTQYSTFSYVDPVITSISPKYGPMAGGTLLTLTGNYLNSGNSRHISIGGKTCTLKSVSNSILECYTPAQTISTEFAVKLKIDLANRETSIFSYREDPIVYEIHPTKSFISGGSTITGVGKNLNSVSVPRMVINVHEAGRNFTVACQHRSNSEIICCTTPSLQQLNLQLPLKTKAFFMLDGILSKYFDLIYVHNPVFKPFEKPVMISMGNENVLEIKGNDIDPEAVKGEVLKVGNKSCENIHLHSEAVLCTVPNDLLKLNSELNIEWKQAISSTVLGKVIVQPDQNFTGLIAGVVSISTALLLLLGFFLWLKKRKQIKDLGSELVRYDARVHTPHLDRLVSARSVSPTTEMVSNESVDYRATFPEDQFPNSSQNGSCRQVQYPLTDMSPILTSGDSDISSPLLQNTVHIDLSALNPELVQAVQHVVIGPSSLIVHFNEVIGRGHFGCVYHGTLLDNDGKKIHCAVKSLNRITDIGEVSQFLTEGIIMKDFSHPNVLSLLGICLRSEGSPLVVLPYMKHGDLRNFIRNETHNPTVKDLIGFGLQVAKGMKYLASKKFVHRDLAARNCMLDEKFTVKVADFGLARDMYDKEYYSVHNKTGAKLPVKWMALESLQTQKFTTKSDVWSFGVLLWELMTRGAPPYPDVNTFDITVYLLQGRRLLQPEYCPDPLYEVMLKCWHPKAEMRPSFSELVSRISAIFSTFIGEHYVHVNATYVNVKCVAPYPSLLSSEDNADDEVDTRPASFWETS
T4 sequence (P00533 25-1210, species assumed): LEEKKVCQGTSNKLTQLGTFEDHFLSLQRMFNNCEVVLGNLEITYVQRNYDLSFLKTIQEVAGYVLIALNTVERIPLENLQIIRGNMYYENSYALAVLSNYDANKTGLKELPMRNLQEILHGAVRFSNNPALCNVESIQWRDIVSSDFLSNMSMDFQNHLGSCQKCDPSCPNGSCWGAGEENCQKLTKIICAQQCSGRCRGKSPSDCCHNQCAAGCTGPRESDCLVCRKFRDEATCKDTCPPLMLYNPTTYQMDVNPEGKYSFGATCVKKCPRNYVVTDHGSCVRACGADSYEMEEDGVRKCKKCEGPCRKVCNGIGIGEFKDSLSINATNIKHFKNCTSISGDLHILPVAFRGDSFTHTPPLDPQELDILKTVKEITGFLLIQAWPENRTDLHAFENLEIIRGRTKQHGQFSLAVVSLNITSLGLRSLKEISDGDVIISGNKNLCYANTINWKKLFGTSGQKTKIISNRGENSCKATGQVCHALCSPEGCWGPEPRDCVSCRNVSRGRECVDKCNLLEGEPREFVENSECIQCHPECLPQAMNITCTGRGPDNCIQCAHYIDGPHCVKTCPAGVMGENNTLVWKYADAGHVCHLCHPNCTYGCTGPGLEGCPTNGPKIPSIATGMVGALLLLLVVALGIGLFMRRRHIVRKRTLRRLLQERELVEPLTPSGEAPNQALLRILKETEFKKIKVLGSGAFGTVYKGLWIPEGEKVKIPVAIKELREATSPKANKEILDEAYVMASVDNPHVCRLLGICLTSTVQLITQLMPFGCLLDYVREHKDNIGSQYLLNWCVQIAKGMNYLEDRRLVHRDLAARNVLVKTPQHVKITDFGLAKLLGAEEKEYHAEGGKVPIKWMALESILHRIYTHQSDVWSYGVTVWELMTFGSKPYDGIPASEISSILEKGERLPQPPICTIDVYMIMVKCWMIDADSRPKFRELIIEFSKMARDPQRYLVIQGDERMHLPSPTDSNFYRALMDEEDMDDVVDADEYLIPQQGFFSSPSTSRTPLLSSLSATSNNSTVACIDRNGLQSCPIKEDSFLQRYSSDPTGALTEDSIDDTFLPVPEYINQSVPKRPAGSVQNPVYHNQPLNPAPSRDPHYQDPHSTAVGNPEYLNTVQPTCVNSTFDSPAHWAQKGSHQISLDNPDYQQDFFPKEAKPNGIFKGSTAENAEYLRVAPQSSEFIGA
T5 sequence (Q9Y243 whole entry, the tested form may be a part): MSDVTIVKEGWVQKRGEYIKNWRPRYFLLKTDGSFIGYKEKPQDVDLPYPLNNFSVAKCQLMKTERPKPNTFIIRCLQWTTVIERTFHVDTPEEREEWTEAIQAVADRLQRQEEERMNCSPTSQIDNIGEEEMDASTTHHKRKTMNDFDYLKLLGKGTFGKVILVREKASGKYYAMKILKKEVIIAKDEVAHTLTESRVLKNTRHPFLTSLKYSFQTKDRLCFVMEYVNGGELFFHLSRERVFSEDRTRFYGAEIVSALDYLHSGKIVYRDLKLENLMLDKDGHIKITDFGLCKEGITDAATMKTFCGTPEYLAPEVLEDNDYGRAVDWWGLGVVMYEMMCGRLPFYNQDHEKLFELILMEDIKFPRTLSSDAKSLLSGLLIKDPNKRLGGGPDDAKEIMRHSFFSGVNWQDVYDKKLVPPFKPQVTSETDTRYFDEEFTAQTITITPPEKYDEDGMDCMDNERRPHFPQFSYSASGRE
T3 sequence (P35968 20-1356, species assumed): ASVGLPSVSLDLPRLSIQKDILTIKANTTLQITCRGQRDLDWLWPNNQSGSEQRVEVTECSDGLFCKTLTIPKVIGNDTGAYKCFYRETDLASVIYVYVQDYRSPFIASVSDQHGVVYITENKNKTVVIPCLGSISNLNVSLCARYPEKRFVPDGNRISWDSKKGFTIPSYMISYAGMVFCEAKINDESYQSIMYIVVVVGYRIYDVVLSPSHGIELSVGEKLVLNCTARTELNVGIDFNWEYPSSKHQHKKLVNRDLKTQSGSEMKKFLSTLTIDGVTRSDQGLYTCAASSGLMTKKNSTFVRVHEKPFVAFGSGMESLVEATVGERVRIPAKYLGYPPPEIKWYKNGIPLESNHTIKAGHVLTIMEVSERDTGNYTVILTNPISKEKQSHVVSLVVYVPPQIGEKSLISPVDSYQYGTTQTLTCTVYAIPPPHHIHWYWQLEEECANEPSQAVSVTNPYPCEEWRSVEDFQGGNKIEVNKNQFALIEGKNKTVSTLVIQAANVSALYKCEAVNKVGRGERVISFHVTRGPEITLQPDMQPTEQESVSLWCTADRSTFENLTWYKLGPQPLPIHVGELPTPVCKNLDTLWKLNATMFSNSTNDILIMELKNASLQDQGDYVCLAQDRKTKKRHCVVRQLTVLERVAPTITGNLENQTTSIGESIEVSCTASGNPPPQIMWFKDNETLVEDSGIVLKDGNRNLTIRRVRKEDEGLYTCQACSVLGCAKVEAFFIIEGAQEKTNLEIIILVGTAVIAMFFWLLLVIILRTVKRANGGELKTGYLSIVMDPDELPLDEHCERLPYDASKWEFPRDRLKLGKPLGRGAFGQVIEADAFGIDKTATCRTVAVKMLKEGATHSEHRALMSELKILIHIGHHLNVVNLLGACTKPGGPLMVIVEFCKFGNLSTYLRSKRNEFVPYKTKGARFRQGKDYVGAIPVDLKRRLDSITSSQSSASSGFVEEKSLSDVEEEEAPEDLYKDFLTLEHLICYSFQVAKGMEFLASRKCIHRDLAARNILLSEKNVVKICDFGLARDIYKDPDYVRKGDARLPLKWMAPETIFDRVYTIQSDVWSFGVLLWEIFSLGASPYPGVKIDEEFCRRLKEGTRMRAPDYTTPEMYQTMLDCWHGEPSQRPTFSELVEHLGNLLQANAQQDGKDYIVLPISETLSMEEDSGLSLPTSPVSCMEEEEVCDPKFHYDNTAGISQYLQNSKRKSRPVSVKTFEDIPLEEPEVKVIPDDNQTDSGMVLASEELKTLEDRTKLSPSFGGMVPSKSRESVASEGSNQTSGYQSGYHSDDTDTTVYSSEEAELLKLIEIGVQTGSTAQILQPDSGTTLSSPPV

Compound	Itk-1 [1]	Met-1 [2]	KDR-1 [3]	EGFR-1 [4]	AKT3-1 [5]	Lck-1 [6]	Zap-1 [7]	IC50 ([1]; Table 3)	IC50 [2]	IC50 ([3]; Table 3)	IC50 [4]	IC50 [5]	IC50 ([6]; Table 3)	IC50 ([7]; Table 3)	IC50 [1]	IC50 [3]	IC50 [6]	IC50 [7]
COc1cc(Nc2ncnc(-c3cccnc3NCCN)n2)cc(OC)c1OC [Compound 1074]	E (E>4.5 ug/mL)	E (E>4.5 ug/mL)	B (B>0.4 and <2.4 ug/mL)	E (E>4.5 ug/mL)	E (E>4.5 ug/mL)	C (C>2.4 and <3.5 ug/mL)	E (E>4.5 ug/mL)											
O=c1[nH]c2ccccc2n1-c1ncnc(Nc2cccc(Cl)c2)n1 [Compound 457]								> 13.3 µM	> 13.3 µM	1.18 to 7.08 µM	7.08 to 10.3 µM	> 13.3 µM	10.3 to 13.3 µM	> 13.3 µM				
Clc1ncnc(Nc2cc(-c3ccccc3)n[nH]2)n1 [Compound 976]									> 16.5 µM		> 16.5 µM	> 16.5 µM			> 16.5 µM	> 16.5 µM	> 16.5 µM	8.8 to 12.8 µM
COc1cc(Nc2ncnc(-n3c(=O)oc4ccccc43)n2)cc(OC)c1OC [Compound 423]								> 11.4 µM	> 11.4 µM	1.01 to 6.07 µM	1.01 to 6.07 µM	6.07 to 8.85 µM	1.01 to 6.07 µM	> 11.4 µM				
O=c1[nH]c2ccccc2n1-c1ncnc(Nc2ccc(Cl)cc2)n1 [Compound 458]								> 13.3 µM	7.08 to 10.3 µM	1.18 to 7.08 µM	> 13.3 µM	> 13.3 µM	> 13.3 µM	> 13.3 µM				
CC(C)(C)c1cc(Nc2ncnc(Nc3ccc(C(N)=O)cc3)n2)[nH]n1 [Compound 502]									1.14 to 6.81 µM		1.14 to 6.81 µM	1.14 to 6.81 µM			1.14 to 6.81 µM	1.14 to 6.81 µM	1.14 to 6.81 µM	> 12.8 µM
COc1ccc(Nc2ncnc(-n3c(=O)[nH]c4ccccc43)n2)cn1 [Compound 489]									> 13.4 µM		> 13.4 µM	> 13.4 µM			> 13.4 µM	> 13.4 µM	> 13.4 µM	> 13.4 µM
COc1ccc(-c2cn[nH]c2Nc2ncnc(Nc3cc(OC)c(OC)c(OC)c3)n2)cc1OC [Compound 470]									> 9.38 µM		7.3 to 9.38 µM	> 9.38 µM			0.834 to 5.01 µM	> 9.38 µM	5.01 to 7.3 µM	> 9.38 µM
N#Cc1cccc(Nc2ncnc(-n3c(=O)[nH]c4ccccc43)n2)c1 [Compound 486]									> 13.7 µM		> 13.7 µM	> 13.7 µM			> 13.7 µM	1.21 to 7.29 µM	1.21 to 7.29 µM	> 13.7 µM
O=c1[nH]c2ccccc2n1-c1ncnc(Nc2cccc3cccnc23)n1 [Compound 688]									> 12.7 µM		> 12.7 µM	> 12.7 µM			> 12.7 µM	> 12.7 µM	> 12.7 µM	6.75 to 9.85 µM
COc1cc(Nc2ncnc(Nc3[nH]ncc3-c3cccc(Cl)c3)n2)cc(OC)c1OC [Compound 999]									> 9.91 µM		> 9.91 µM	> 9.91 µM			> 9.91 µM	> 9.91 µM	> 9.91 µM	> 9.91 µM
COc1ncnc(Nc2cc(OC)c(OC)c(OC)c2)n1 [Compound 421]								> 15.4 µM	> 15.4 µM	> 15.4 µM	> 15.4 µM	> 15.4 µM	> 15.4 µM	> 15.4 µM				
NC(=O)c1cccc(Nc2ncnc(-n3c(=O)[nH]c4ccccc43)n2)c1 [Compound 420]								> 13 µM	> 13 µM	1.15 to 6.91 µM	> 13 µM	> 13 µM	> 13 µM	> 13 µM				
O=C(Nc1cccc(Nc2ncnc(-n3c(=O)[nH]c4ccccc43)n2)c1)O[C@@H]1CCOC1 [Compound 455]								> 10.4 µM	> 10.4 µM	0.923 to 5.54 µM	5.54 to 8.08 µM	> 10.4 µM	> 10.4 µM	> 10.4 µM				
O=c1[nH]c2ccccc2n1-c1ncnc(Nc2ccc(F)c(Cl)c2)n1 [Compound 459]								> 12.6 µM	6.73 to 9.81 µM	1.12 to 6.73 µM	> 12.6 µM	> 12.6 µM	> 12.6 µM	> 12.6 µM				
COc1cc(Nc2ncnc(-c3ccc(N(C)C)nc3)n2)cc(OC)c1OC [Compound 449]								> 11.8 µM	> 11.8 µM	> 11.8 µM	> 11.8 µM	> 11.8 µM	> 11.8 µM	> 11.8 µM				
CC(C)(C)c1cc(Nc2ncnc(Nc3ccc(CO)cc3)n2)[nH]n1 [Compound 501]									< 1.18 µM		1.18 to 7.07 µM	> 13.3 µM			1.18 to 7.07 µM	1.18 to 7.07 µM	1.18 to 7.07 µM	> 13.3 µM
O=c1[nH]c2ccccc2n1-c1ncnc(Nc2ccccn2)n1 [Compound 487]									> 14.7 µM		> 14.7 µM	> 14.7 µM			> 14.7 µM	> 14.7 µM	> 14.7 µM	> 14.7 µM
CC(=O)NS(=O)(=O)c1ccc(Nc2ncnc(-n3c(=O)[nH]c4ccccc43)n2)cc1 [Compound 452]								> 10.6 µM	> 10.6 µM	0.94 to 5.64 µM	> 10.6 µM	> 10.6 µM	> 10.6 µM	> 10.6 µM				
O=c1[nH]c2ccccc2n1-c1ncnc(Nc2ccc3ncccc3c2)n1 [Compound 687]									> 12.7 µM		9.85 to 12.7 µM	> 12.7 µM			9.85 to 12.7 µM	1.13 to 6.75 µM	1.13 to 6.75 µM	> 12.7 µM
C#Cc1cccc(Nc2ncnc(-n3c(=O)[nH]c4ccccc43)n2)c1 [Compound 460]								> 13.7 µM	7.31 to 10.7 µM	1.22 to 7.31 µM	1.22 to 7.31 µM	> 13.7 µM	10.7 to 13.7 µM	> 13.7 µM				
COc1cc(Nc2ncnc(-n3c(NC(=O)c4ccccc4)nc4ccccc43)n2)cc(OC)c1OC [Compound 435]								> 9.04 µM	> 9.04 µM	> 9.04 µM	> 9.04 µM	> 9.04 µM	> 9.04 µM	> 9.04 µM				
